Data on one compound can be found in patent publication US20230131219A1, “USE OF AGONISTS TO AUGMENT CAR T FUNCTION IN SOLID TUMORS” (The University of North Carolina at Chapel Hill, priority 2019, published 2023).

SMILES strings stand for the structures.

What all share (assay type): in vivo, FVB-Neu mice
The test system of test [1] is NT2 tumors. Briefly: Orthotopic murine breast tumor model: tumor growth and survival. On the procedure:
8-12 week old female FVB-Neu mice (Jackson Labs) were used under a protocol approved by University of North Carolina Institutional Animal Care and Use Committee. For tumor inoculation, mice were intradermally injected with 5×10^4 NT2 tumor cells into an axillary mammary gland. 21 days later (day 0), 1.5×10^6 CD4+ and 1.5×10^6 CD8+ CAR T cells were injected intravenously. Tumors were measured twice weekly with calipers and the tumor area calculated as length×width. The change of tumor area was determined by subtracting the tumor area before CAR T injection with the value on the day of the measurement. Per institutional guidelines, tumor-bearing mice were sacrificed when the tumor area reached 200 mm^2 or loss of more than 20% of total body weight. For tumor-bearing animals receiving combination therapy, animals underwent lymphodepletion with 5 Gy of whole body irradiation (X-RAD 320, Precision X-Ray) one day prior to CAR T injection. In the morning of day 0 mice were injected with 500 μg of DMXAA (Tocris) distal to the site of tumor growth with CAR T cells injected in the afternoon. Starting 1 day after CAR T infusion, anti-PD-1 (J43, 200 μg/mouse), anti-Gr-1 (RB6-8C5, […]), and […] (R4-6A2, 250 μg/mouse) mAb were injected intraperitoneally into respective recipients.

The subject of test [2] is NT2 tumors. Briefly: Flow cytometry of CAR T cells in tumor microenvironment and spleen. As to the method:
At indicated time points, tumors were bluntly resected and cut into small pieces and processed into a single-cell suspension using gentleMACS™ Dissociator (Miltenyi). Lymphocyte enrichment was achieved by isolating cells at the interface of 44% Percoll (Sigma-Aldrich) in media and Lympholyte-M (Cedarlane). Isolated immune cells were stained as described below. The lymphocyte fraction was not enriched in experiments where absolute cell number was determined.
Anti-Neu CAR T cells were detected using recombinant Neu/Her2.Fc fusion protein conjugated with PE (Neu-PE) (Creative Biomart). Antibodies used in in vitro assays included anti-CD45-FITC/e450 (30-F11, Invitrogen), anti-IFN-γ-APC (XMG1.2, Invitrogen), anti-TNF-PE-Cy7 (MP6-XT22, Invitrogen) and anti-IL-17A-PE (eBio17B7, Invitrogen). Tumor-infiltrating immune cells were detected and analyzed with anti-CD45-FITC, anti-CD3-e450 (17A2, Invitrogen), anti-CD4-BV510 (GKL.5, Biolegend), anti-CD8-APC-Cy7 (53-6.7 BD Biosciences), anti-CD44-PerCP5.5 (IM7, Invitrogen), anti-CD62L-APC (MEL-14, Invitrogen), anti-CD11b-BV711 (M1/70, Invitrogen), anti-F4/80-BV605 (BM8, Invitrogen), anti-Gr-1-Percp5.5 (RB6-8C5, Invitrogen), anti-PD-1-PE-Cy7 (J43, Invitrogen), anti-CD127-BV421 (A7R34, Biolegend), anti-KLGR1-BV605 (2F1, BD Bioscience). For in vivo intracellular protein staining, anti-Foxp3-PerCP5.5 (FJK-16S. Invitrogen), anti-Ki67-APC (SOLA15, Invitrogen) were used. Dead cells were excluded with Fixable Viability Stain 700 (BD Biosciences) and Fc receptors were blocked with Fc block (BD Biosciences). Cell number was determined using Count Bright Beads (Invitrogen). Data were collected using a BD LSR-Fortessa or BD Canto cytometer (BD Biosciences). Data were analyzed with FlowJo software (Treestar).
Background: In flow cytometry, cells or beads pass a laser one at a time.

Test [3] relates to NT2 tumors. Briefly: Single cell RNA sequencing of tumor infiltrating CD45+ immune cells. The following applies: DMXAA with Th/Tc17 CAR T cells. The source says:
At day 7 or day 10 after CAR-T therapy, tumors were bluntly resected and cut into small pieces and digested using Tumor Dissociation Kit, mouse (Miltenyi) in gentleMACS™ Dissociator (Miltenyi) according to manufacturer's instruction. After digestion, dead and dying cells were magnetically separated using a Dead Cell Removal Kit (Miltenyi), after which immune cells were magnetically enriched using CD45 (TIL) MicroBeads (Miltenyi). Single cells were partitioned using a Chromium Controller (10× Genomics), and gene expression sequencing libraries were generated using Chromium Single Cell 3′ Library & Gel Bead Kit v3 (10× Genomics). The libraries were pooled and sequenced using an Illumina NovaSeq 6000 (Illumina). Raw base call files were demultiplexed with Cell Ranger 3.1.0 (10× Genomics) and bcl2fastq Conversion Software v2.20.0 (Illumina).
Single cell results from Cell Ranger output was analyzed using Partek flow workstation (available at partek.com/application-page/single-cell-gene-expression/). In detail, single cell result from each sample of Cell Ranger output was filtered using single cell (QA/QC) filter to exclude doublets/multiplets, cells expressing genes <30 genes per cell and dead cells. Processed results were normalized using recommended method, including log normalization of gene expression and scaled to count per million. Following results were filtered out by feature (gene) that were not expressed in 99% of samples. Then the replicate samples were pooled and clustered with an unsupervised method based on PCA using the first 16 principle component. Clustered plots were visualized by t-SNE plot, where cells were clustered using shared nearest neighbor (SNN). Populations was determined by expression of key markers, including Cd3e (T cells), Adgre1 (macrophage) and Itgam and/or Itgax (myeloid cells), and T cells were further clustered by expression of Cd8 and Cd44 (activated CD8 T cells), lack of Cd44 (naive T cells), Cd4 Cd44 (activated CD4 T cells) and Cd4 Foxp3 (Treg). For comparison, samples from each treatment group was pooled by the mean expression to simulate bulk RNA-seq, and compared using GSA analysis directly. Gene hits that reached P<0.05 with more than 2 or less than −2 fold expression difference was reported and shown as a heat map for pooled samples (macrophage and myeloid cells) or Q<0.05 with 2 or −2 fold expression difference for non-pooled samples (T cells). Further detailed analysis steps can be found on Partek flow page (available at documentation.partek.com/pages/viewpage.action?pageId=12943422) and parameter setting was set as default unless indicated.

[4] abbreviates: DMXAA prior to Th/Tc17 CAR-T cell infusion, compared to mock transduced T cells or Th/Tc17 CAR-T cells alone.
[5] abbreviates: DMXAA with Th/Tc17 CAR T cells, flow cytometry.

Take `Cc1ccc2c(=O)c3cccc(CC(=O)O)c3oc2c1C` [DMXAA]: in test [1] (setting [4]), the anti-tumor efficacy result was “significantly improved” and the overall survival result is listed as “significantly improved”. In addition, in test [1] (Th/Tc17 CAR-T, DMXAA, anti-PD-1 and anti-Gr1 treatment), the “requirement for tumor remission” value is listed as “required for tumor remission”. In test [2] (DMXAA given with 7/15 CAR T cells, at a site remote from the tumor), the “persistence of CAR T cells in the TME” value is reported as “enhanced the persistence”. Besides, the “number of CAR T cells” value in test [2] (DMXAA treatment, through day 10 post-therapy) is “marked increase”. Moreover, in test [2] (setting [5]), the “number and percentage of CD4+ CAR T cells” value is “increase in the number and percentage”; the “percentage and number of CAR T cells in the TME” value was “greatly increased”. In test [3], the “expression of CXCL9 and CXCL10 by myeloid cells within the TME” value was “increased expression”. In addition, in test [3] (day 7), the “expression of APOE, PTGS2 and AREG in myeloid cells” value is “reduced expression”; the “expression of BATF2, CXCL10, CCL5, SOCS1, NOS2 and IL12A in second myeloid cluster” value is recorded as “greatly enhanced expression”; the “expression of genes associated with M1-like macrophages including NOS2 and INHBA” value is “increased expression”; the “presence of M2-like macrophages expressing RENTLA, MMRC1, FOLR2 and IL10 in the TME” value is on record as “marked decrease”. Also, the “accumulation of T cells co-expressing TBX21, IFNG, CXCR3 and CCR5” value in test [3] (day 7, CD8+ CAR T cells) is given as “enhanced the accumulation”.
